# Literature values in patent US7041634B2, “Method of inhibiting immune system destruction of transplanted viable cells” (Emory University, priority 1995, dated 2006).
# Tested on: encapsulated hamster islet xenografts in NOD mice
# Details: NOD recipients
smiles,measurement,value
N=C(N)NCCCCCCC(=O)NC(O)C(=O)NCCCCNCCCN (stereo not shown) [deoxyspergualin],prolongation of encapsulated islet xenografts,significant prolongation
